Measurements from patent publication US20220177511A1, “SERIES OF HALOGENATED TETRACYCLIC TRITERPENE DERIVATIVES AND THEIR PREPARATION AND APPLICATION” (SHANGHAI KING-X BIOTECH CO., LTD, priority 2019, published 2022).
Values after ≈ are worked out from the molar mass of the structure shown. Where two headings read alike, the source gives them in different places.

Columns and labels:
[1] = Plasma pharmacokinetics after single intragastric administration in rats; assay type: in vivo, SD rat; details: for AUC0-t / AUC(0-inf) / CL/F / Cmax / Tmax / half-life / MRT inf / Vd/F: single gavage 10 mg/kg, Mean ± SD; for bioavailability: SD, single gavage 10 mg/kg vs intravenous 2 mg/kg; for MRT inf: read-out: MRT0-∞; for Vd/F: read-out: Vz/F
Protocol: (§1) Strain: SD rat; Gender: half male and female. Weight: about 200-250 g. Source: Shanghai Slac Laboratory Animal Co., Ltd. Laboratory Animal Production License No.: SOCK (Shanghai) 2017-0005. Laboratory Animal Use License Certificate number: SYXK (Shanghai) 2014-0018. Breeding: constant temperature purification and ventilation animal room, 20-26° C., free food and water, humidity 40-70%, light for 12 h.
Route A: single oral administration. Volume: calculated according to 10 mL/kg body weight. Preparation: an appropriate amount of compound 2 is added to a small amount of 0.5% CMC-Na and grinded, and another portion of 0.5% CMC-Na was added to form a suspension.
(§2) 12 SD rats were divided into 2 groups, 6 rats in each group, […]. Fasting for 12 h before administration, free drinking water. The doses of 10 mg/kg were administered as a single gavage, and the doses of 2 mg/kg were administered as a single intravenous injection. About 100 μL orbital blood was collected before administration, 3 min, 10 min, 20 min, 30 min, 1 h, 2 h, 3 h, 4 h, 6 h, 8 h, 11 h, and 24 h after administration. For intravenous administration, orbital blood was collected before administration, 3 min, 8 min, 15 min, 30 min, 1 h, 2 h, 3 h, 4 h, 6 h, 8 h, 11 h, 24 h after injection. The blood was anticoagulated with 1% heparin, centrifuged at 8000 rpm for 4 min, and the plasma was separated. Store at −20° C. High concentration samples were diluted with blank plasma. 2.1.4 Determination method of plasma samples 2.1.4.1 Instrument (LC-MS/MS)
(§3) Liquid chromatography system: Ultimate3000 liquid chromatography system (including Ultimate3000 ternary infusion pump, Ultimate3000 column oven, Ultimate3000 autosampler and Ultimate3000 vacuum degasser), Dionex Corporation. MS/MS system: 4000 Q-Trap tandem mass spectrometer with electrospray ionization source (ESI source), AB Company
(§4) Column: Athena C18-WP 100A (2.1×50 mm, 5 μm); Injection volume: 10 μL; Mobile phase: A: acetonitrile; C: 0.05% ammonia, gradient elution (see table below); Flow rate: 0.3 mL/min
(§5) The ion source is electrospray ionization source (ESI), the drying gas (N2) temperature is 500° C., the electrospray voltage is −4500 V, the detection method is negative ion detection, the scanning method is the […] (MRM) method and the scanning time is 0.15 s. The mass spectrometry parameters are as follows:
50 μL of rat whole blood was added with 2.5 μL of internal standard working solution (250 ng/mL tolbutamide). 150 μL of acetonitrile was used to precipitate the proteins. The sample was centrifuged at 13,000 rpm and 4° C. for 5 min. The upper organic phase was taken and filtered with a 0.22 μM microporous membrane, which was then analyzed by LC-MS/MS. […]

[2] = Plasma pharmacokinetics after single intravenous injection in rats; assay type: in vivo; details: rat, intravenous 2 mg/kg, Mean ± SD; for concentration at 0.05 h: read-out: C0.05; for MRT inf: read-out: MRT0-∞; for Vd: read-out: Vz
Protocol: as §1
Route B: single intravenous injection. Volume: calculated according to 5 mL/kg body weight. Preparation: an appropriate amount of compound 2 is dissolved in 3% total volume of DMSO. 3% total volume of castor oil is added to the solution and mixed by vortexing, an appropriate amount of normal saline is added to form an intravenous drug solution (0.4 mg/mL clear solution).
as §2, §3, §4, §5
50 μL of rat whole blood was added with 2.5 μL of internal standard working solution (250 ng/mL tolbutamide). 150 μL of acetonitrile was used to precipitate the proteins. The sample was centrifuged at 13,000 rpm and 4° C. for 5 min. The upper organic phase was taken and filtered with a 0.22 μM microporous membrane, which was then analyzed by LC-MS/MS.

[3] = Solubility test in water and FaSSIF; assay type: physicochemical; details: thermodynamic from solid, 37° C., up to 24 hours, read-out: Solubility
[4] = both sexes, rat, plasma, po, all rats (♂ and ♀)
[5] = female, rat, plasma, po, rats ♀

CC(C)(O)[C@@H]1CC[C@](C)([C@H]2[C@@H](O)C[C@@]3(C)[C@@H]4C[C@H](O)[C@H]5C(C)(C)C(F)(F)CC[C@@]56C[C@@]46CC[C@]23C)O1 [Compound 2, (2aR,3R,4S,5aS,5bS,7S,7aR,11aR,12aS)-9,9-difluoro-3-((2R,5S)-5-(2-hydroxypropan-2-yl)-2-methyltetrahydrofuran-2-yl)-2a,5a,8,8-tetramethyltetradecahydro-1H,12H-cyclopenta[a]cyclopropa[e]phenanthrene-4,7-diol]
AUC0-t ([1]; all rats (♂ and ♀), 10 mg/kg): 1916 ng·h/mL | bioavailability ([1]; both sexes, rat, plasma, po, all rats (♂ and ♀), read-out: F (mean absolute bioavailability)): 22% | AUC(0-inf) [1, 4]: 2450 ± 3070 ng·h/mL | CL/F [1, 4]: 140 mL/min/kg | Cmax [1, 4]: 323 ng/mL | Tmax [1, 4]: 2.17 h | half-life [1, 4]: 2.89 h | AUC0-t ([1]; both sexes, rat, plasma, po, all rats (♂ and ♀), read-out: AUC0-t): 1920 ng·h/mL | MRT inf [1, 4]: 4.4 ± 1.28 h | Vd/F [1, 4]: 27.9 ± 19 L/kg | bioavailability ([1]; female, rat, plasma, po, rats ♀, read-out: F (absolute bioavailability)): 28.4% | AUC(0-inf) [1, 5]: 4040 ± 3990 ng·h/mL | CL/F [1, 5]: 71.2 mL/min/kg | Cmax [1, 5]: 459 ± 277 ng/mL | Tmax [1, 5]: 2.33 ± 0.58 h | half-life [1, 5]: 3.64 ± 2.54 h | AUC0-t ([1]; female, rat, plasma, po, rats ♀, read-out: AUC0-t): 3000 ± 2430 ng·h/mL | MRT inf [1, 5]: 5.01 ± 1.71 h | Vd/F [1, 5]: 15.8 ± 9.24 L/kg | bioavailability ([1]; male, rat, plasma, po, rats ♂, read-out: F (absolute bioavailability)): 15.6% | AUC(0-inf) ([1]; male, rat, plasma, po, rats ♂): 859 ± 297 ng·h/mL | CL/F ([1]; male, rat, plasma, po, rats ♂): 208 mL/min/kg | Cmax ([1]; male, rat, plasma, po, rats ♂): 187 ± 37 ng/mL | Tmax ([1]; male, rat, plasma, po, rats ♂): 2 ± 1 h | half-life ([1]; male, rat, plasma, po, rats ♂): 2.14 ± 0.64 h | AUC0-t ([1]; male, rat, plasma, po, rats ♂, read-out: AUC0-t): 831 ng·h/mL | MRT inf ([1]; male, rat, plasma, po, rats ♂): 3.78 ± 0.24 h | Vd/F ([1]; male, rat, plasma, po, rats ♂): 40 ± 19.5 L/kg | melting point: 189 to 192 °C | AUC0-t ([2]; both sexes, all rats (♂ and ♀)): 1590 ± 585 ng·h/mL | AUC(0-inf) ([2]; both sexes, all rats (♂ and ♀)): 1660 ± 656 ng·h/mL | clearance ([2]; both sexes, all rats (♂ and ♀)): 23 mL/min/kg | half-life ([2]; both sexes, all rats (♂ and ♀)): 1.18 ± 0.41 h | concentration at 0.05 h ([2]; both sexes, all rats (♂ and ♀)): 1460 ± 232 ng/mL | MRT inf ([2]; both sexes, all rats (♂ and ♀)): 1.55 ± 0.59 h | Vd ([2]; both sexes, all rats (♂ and ♀)): 2.13 ± 0.38 L/kg | AUC0-t ([2]; female, rats ♀): 2120 ± 114 ng·h/mL | AUC(0-inf) ([2]; female, rats ♀): 2250 ± 206 ng·h/mL | clearance ([2]; female, rats ♀): 14.9 mL/min/kg | half-life ([2]; female, rats ♀): 1.47 h | concentration at 0.05 h ([2]; female, rats ♀): 1390 ± 250 ng/mL | MRT inf ([2]; female, rats ♀): 2.03 ± 0.41 h | Vd ([2]; female, rats ♀): 1.86 ± 0.348 L/kg | AUC0-t ([2]; male, rats ♂): 1060 ± 113 ng·h/mL | AUC(0-inf) ([2]; male, rats ♂): 1080 ± 106 ng·h/mL | clearance ([2]; male, rats ♂): 31 mL/min/kg | half-life ([2]; male, rats ♂): 0.9 h | concentration at 0.05 h ([2]; male, rats ♂): 1540 ± 233 ng/mL | MRT inf ([2]; male, rats ♂): 1.07 ± 0.09 h | Vd ([2]; male, rats ♂): 2.39 ± 0.168 L/kg | Solubility ([3]; FaSSIF (pH 6.5)): 15 µg/mL (≈ 29.4 µM) | Solubility ([3]; Water): 2 µg/mL (≈ 3.92 µM)
